Measured values as given in patent US7956072B2, “Agent for repairing corneal sensitivity containing amide compound” (Senju Pharmaceutical Co., Ltd., priority 2004, dated 2011).
Entries after “also recorded” stand apart in the source; their conditions may differ.

Experiments:
[1] = system: rabbit corneal hyposensitivity model; experiment: Improving effect on rabbit corneal hyposensitivity using microkeratome (corneal flap model, Cochet-Bonnet corneal sensitivity meter); format: in vivo; settings: 0.01% instillation; for recovery of corneal sensitivity relative to control group: 50 μL 4 times a day for 1 week or 2 weeks after corneal flap preparation, measured weekly 1 to 8 weeks postsurgery, hydrochloride
Experimental: Japanese white rabbits (body weight 2.5-3.0 kg) purchased from Japan SLC were used. The animals were housed separately in cages in a room set to room temperature 23±3° C., humidity 55±10%, 12 hr light cycle (light on 8 am, light off on 8 pm) from arrival to the end of the test. A limited amount of a solid feed (Labo R-stock, Nosan Corporation, 100 g for one day) was given to the animals and a free access to tap water was allowed.
As the test substance, compound 1 was used. Compound 1 was dissolved in the following base solution to 0.01% and administered by instillation. The base solution was administered to the control group by instillation.
Prior to the start of the test, the anterior segment of eye of the animal was visually observed and cornea stained marks by fluorescein was observed, and the rabbits showing no abnormality in them were selected. Using Cochet-Bonnet corneal sensitivity meter (manufactured by LUNEAU), the initial value of corneal sensitivity was measured.
Intramuscular injection (0.9 mL/kg) of a Celactal (2% xylazine):Ketalar (5% ketamine)=0.5:1 mixture was given to the animals to perform systemic anesthesia, and the eyeball was sufficiently exposed. Using microkeratome (MK2000, Nidek) attached a rabbit eye adaptor inside a suction ring, a corneal flap (diameter 8.5 mm) was prepared with a 130 μm thick blade (Arbelaez M C. et al., J. Refract Surg., 2002 May-Jun. 18 (3 Suppl): S357-60). The corneal flap was certainly put back into position under a microscope, and the animal was woken up from the anesthesia while observing the animal to prevent displacement of the flap. […]
The corneal sensitivity was measured using a Cochet-Bonnet corneal sensitivity meter once every week from one to eight weeks after the surgery. […]
For statistical analysis, a parametric Dunnett multiple comparisons test (one sided) (SAS preclinical package; Version 5.0, SAS Institute Japan) was used and a risk of less than 5% was evaluated as significant.

[2] = system: cultured rabbit trigeminal nerve cells; experiment: Promoting effect on neuritogenesis in cultured rabbit trigeminal nerve cell; format: cell-based; settings: compound 1 final concentration 1 μM, 48 hr of culture
From the text: Japanese White rabbits (2-3 days old) purchased from KITAYAMA LABES Co., Ltd. were used.
The trigeminal nerve cell was isolated according to the report of Chan et al. (Chan, Kuan Y. and Haschke, Richard H., Exp. Eye Res., 41: 687-699, 1985). To be specific, under ether anesthesia, after cardiac perfusion with saline, the trigeminal ganglia was removed, dispersed using a nerve dispersion solution (SUMITOMO BAKELITE Co., Ltd.) to give a cell suspension. […]
After 48 hr of culture, the cells were fixed with 4% paraformaldehyde at room temperature for 2 hr, and nerve cell body and neurite were fluorescence stained using an anti-neurofilament 200 antibody (Sigma) that specifically recognizes neurofilaments which are intermediate filaments specific to a nerve cell and a fluorescent secondary antibody reactive therewith.
The stained cells were imported as images from a fluorescence microscope into a computer and the cell body diameter and neurite length of the imported cell images were measured using an image analysis software (Image-Pro Plus ver. 4.0, Planetron. Inc.). The cells of 3 wells were measured for each of the compound 1 addition group and the control group. The cells having a neurite with a length of not less than twice the diameter of a cell body were taken as neuritogenetic cells, and the percentage (%) of the neuritogenetic cells in the total cells measured was calculated.

## C[C@@H](N)c1ccc(C(=O)Nc2ccnc3[nH]ccc23)cc1.Cl [compound 1, (R)-(+)-N-(1H-pyrrolo[2,3-b]pyridin-4-yl)-4-(1-aminoethyl)benzamide 1 hydrochloride]
[1]; 1-week administration group, at 5 week postsurgery, Dunnett test, p<0.05
  corneal sensitivity compared to control group (statistical analysis): significantly high
[1]
  recovery of corneal sensitivity relative to control group: has an effect of promoting the recovery of corneal hyposensitivity
[1]; listed as test substance
  recovery of corneal sensitivity relative to control group: better recovery of corneal sensitivity than in the control group
[2]; anti-neurofilament 200 staining, hydrochloride
  neuritogenesis of cultured trigeminal nerve cells (fluorescence microscope observation): many cells having a long-extended neurite were observed; also recorded: promotes neuritogenesis
[2]; N=3, mean, control group 24%, p<0.001 vs control
  percentage (%) of the neuritogenetic cells in the total cells measured: 54.6%
